Values of other authors as cited in patent publication US6610471B1, “Methods and compositions to investigate infection by hepatitis B virus and agents to prevent and treat the infection” (priority 1998, dated 2003).

Test system: chronic HBV infection
Settings: patients receiving interferon-α treatment, long-term studies; cited from earlier work

In the case of interferon-α, the “patients with loss of circulating HBV antigens and improved survival rate” value is given as “about 30 % of patients”.
